Drawing on PubChem BioAssay AID200 (DTP/NCI, 2004), this text covers T/C for 15 compounds.

Values joined by “and” are separate entries in the source; they are usually repeats but may differ in a detail not shown here. Equal values may be shown once. Toxic doses and inconclusive results are not listed. Where a SMILES comes first, the peptide text is derived from it.

The test system of this test is B6C3F1 mice, B16 melanoma ip, median survival T/C. The test is described as follows: NCI In Vivo Anticancer Drug Screen. Data for tumor model B16 Melanoma (intraperitoneal) in B6C3F1 mice. Conditions: endpoint: median survival time, higher = longer survival. The procedure, abridged:
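Tumor-bearing mice received test compound; a separate group got vehicle only. Survival was then compared, with results reported as treated over control.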

The mark [1] stands for this setting: dose: 50.0 mg/kg/injection, schedule: Q01DX009 (ip), vehicle: saline with Tween-80.
[2] abbreviates: dose: 100.0 mg/kg/injection, schedule: Q01DX009 (ip), vehicle: saline with Tween-80.
Setting [3] is: dose: 200.0 mg/kg/injection, schedule: Q01DX009 (ip), vehicle: saline with Tween-80.
[4] abbreviates: dose: 25.0 mg/kg/injection, schedule: Q01DX009 (ip), vehicle: saline with Tween-80.
Where [5] appears, read: dose: 12.5 mg/kg/injection, schedule: Q01DX009 (ip), vehicle: saline.
Where [6] appears, read: dose: 25.0 mg/kg/injection, schedule: Q01DX009 (ip), vehicle: saline.
The mark [7] stands for this setting: dose: 50.0 mg/kg/injection, schedule: Q01DX009 (ip), vehicle: saline.
[8] abbreviates: dose: 50.0 mg/kg/injection, schedule: Q01DX009 (ip), vehicle: Klucel (hydroxypropylcellulose) (HPC).
Setting [9] is: dose: 100.0 mg/kg/injection, schedule: Q01DX009 (ip), vehicle: Klucel (hydroxypropylcellulose) (HPC).
[10] abbreviates: dose: 200.0 mg/kg/injection, schedule: Q01DX009 (ip), vehicle: Klucel (hydroxypropylcellulose) (HPC).
[11] abbreviates: dose: 400.0 mg/kg/injection, schedule: Q01DX009 (ip), vehicle: Klucel (hydroxypropylcellulose) (HPC).

As to `COc1cccc2c1C(=O)c1c(O)c3c(c(O)c1C2=O)CC(O)(C(=O)CO)CC3OC1CC(N)C(O)C(C)O1` (stereo not given), the T/C runs as follows: (dose: 4.1 mg/kg/injection, schedule: Q01DX001 (ip), vehicle: other) 108 % of control; (dose: 4.5 mg/kg/injection, schedule: Q01DX009 (ip), vehicle: water) 209 % of control; (dose: 6.9 mg/kg/injection, schedule: Q01DX001 (ip), vehicle: other) 114 % of control; (dose: 9.0 mg/kg/injection, schedule: Q01DX009 (ip), vehicle: water) 219 % of control; (dose: 11.5 mg/kg/injection, schedule: Q01DX001 (ip), vehicle: other) 118 % of control; (dose: 18.0 mg/kg/injection, schedule: Q01DX009 (ip), vehicle: water) 234 % of control. Moreover, the T/C (dose: 19.2 mg/kg/injection, schedule: Q01DX001 (ip), vehicle: other) is 123 % of control and the T/C (dose: 36.0 mg/kg/injection, schedule: Q01DX009 (ip), vehicle: water) was 156 % of control.
Turning to `c1nc(N2CC2)c2cnn(C3CCCCO3)c2n1` (stereo not given), the T/C was 91 % of control under setting [1], 93 % of control under setting [2] and 91 % of control under setting [3].
Turning to `CC(C)CC(NC(=O)CF)C(=O)O` (stereo not given), the T/C is 95 % of control (dose: 0.31 mg/kg/injection, schedule: Q01DX009 (ip), vehicle: saline); 93 % of control (dose: 0.63 mg/kg/injection, schedule: Q01DX009 (ip), vehicle: saline); 90 % of control (dose: 1.25 mg/kg/injection, schedule: Q01DX009 (ip), vehicle: saline); 89 % of control (dose: 2.5 mg/kg/injection, schedule: Q01DX009 (ip), vehicle: saline); 96 % of control (dose: 5.0 mg/kg/injection, schedule: Q01DX009 (ip), vehicle: saline); 100 % of control (dose: 10.0 mg/kg/injection, schedule: Q01DX009 (ip), vehicle: saline).
As for `CC(=O)O[C@H]1C(=O)[C@@]2(C)C(C(OC(=O)c3ccccc3)[C@]3(O)CC(OC(=O)[C@H](OC(=O)CCC(=O)O)C(NC(=O)c4ccccc4)c4ccccc4)C(C)=C1C3(C)C)C1(OC(C)=O)COC1C[C@@H]2O` (stereo not given in full), the T/C (dose: 1.25 mg/kg/injection, schedule: Q01DX009 (ip), vehicle: water) is 111 % of control; the T/C (dose: 2.5 mg/kg/injection, schedule: Q01DX009 (ip), vehicle: sodium bicarbonate) is 119 % of control; the T/C (dose: 2.5 mg/kg/injection, schedule: Q01DX009 (ip), vehicle: water) is 159 % of control; the T/C (dose: 5.0 mg/kg/injection, schedule: Q01DX009 (ip), vehicle: sodium bicarbonate) was 154 % of control; the T/C (dose: 5.0 mg/kg/injection, schedule: Q01DX009 (ip), vehicle: water) was 166 % of control; the T/C (dose: 10.0 mg/kg/injection, schedule: Q01DX009 (ip), vehicle: sodium bicarbonate) is 159 % of control. Further, the T/C is 160 % of control and 183 % of control (dose: 10.0 mg/kg/injection, schedule: Q01DX009 (ip), vehicle: water); 154 % of control (dose: 20.0 mg/kg/injection, schedule: Q01DX009 (ip), vehicle: sodium bicarbonate); 160 % of control and 201 % of control (dose: 20.0 mg/kg/injection, schedule: Q01DX009 (ip), vehicle: water); 185 % of control (dose: 40.0 mg/kg/injection, schedule: Q01DX009 (ip), vehicle: sodium bicarbonate); 177 % of control and 218 % of control (dose: 40.0 mg/kg/injection, schedule: Q01DX009 (ip), vehicle: water).
For the compound `CNC(=O)Oc1ccc(S(=O)(=O)c2ccc(OC(=O)NC)cc2)cc1`, the T/C by setting is: (dose: 6.25 mg/kg/injection, schedule: Q01DX009 (ip), vehicle: saline with Tween-80) 109 % of control; (dose: 12.5 mg/kg/injection, schedule: Q01DX009 (ip), vehicle: saline with Tween-80) 95 % of control; under setting [4], 88 % of control and 98 % of control; under setting [1], 90 % of control and 96 % of control; under setting [2], 86 % of control.
With `COc1ccc(C[C@@H]2NC[C@@H](O)[C@@H]2OC(C)=O)cc1`, the T/C by setting is: under setting [4], 124 % of control; (dose: 25.0 mg/kg/injection, schedule: Q04DX003 (ip), vehicle: saline with Tween-80) 112 % of control; under setting [1], 120 % of control; (dose: 50.0 mg/kg/injection, schedule: Q04DX003 (ip), vehicle: saline with Tween-80) 110 % of control; (dose: 100.0 mg/kg/injection, schedule: Q04DX003 (ip), vehicle: saline with Tween-80) 114 % of control; under setting [3], 120 % of control and 121 % of control. The T/C (dose: 200.0 mg/kg/injection, schedule: Q04DX003 (ip), vehicle: saline with Tween-80) was 112 % of control.
Turning to `O=C(O)C(O)C(O)C1[O][Sb][O]C1C(=O)O` (stereo not given), the T/C by setting is: (dose: 6.25 mg/kg/injection, schedule: Q01DX009 (ip), vehicle: saline) 96 % of control; under setting [5], 97 % of control; under setting [6], 104 % of control; under setting [7], 107 % of control.
Turning to `NC(=O)c1ncn(C2OC(CO)C(O)C2O)c1O` (stereo not given), the T/C reads like this: (dose: 12.5 mg/kg/injection, schedule: Q01DX009 (ip), vehicle: Klucel (hydroxypropylcellulose) (HPC)) 102 % of control and 106 % of control; (dose: 25.0 mg/kg/injection, schedule: Q01DX009 (ip), vehicle: Klucel (hydroxypropylcellulose) (HPC)) 102 % of control and 107 % of control; under setting [8], 98 % of control and 107 % of control; under setting [9], 96 % of control and 106 % of control; under setting [10], 97 % of control and 102 % of control; under setting [11], 90 % of control.
On to `CC(C)CC(NC(=O)CNC(=O)C(CC(C)C)NC(=O)CN)C(=O)O` (stereo not given) (H-GLGL-OH; configuration not given here), for which the T/C reads like this: under setting [9], 120 % of control; under setting [10], 118 % of control; under setting [11], 122 % of control.
On to `CC(C)(C)OC(=O)N1CCCC1C(=O)O` (stereo not given), for which the T/C (dose: 22.5 mg/kg/injection, schedule: Q01DX009 (ip), vehicle: Klucel (hydroxypropylcellulose) (HPC)) is 100 % of control; the T/C (dose: 45.0 mg/kg/injection, schedule: Q01DX009 (ip), vehicle: Klucel (hydroxypropylcellulose) (HPC)) is 102 % of control; the T/C (dose: 90.0 mg/kg/injection, schedule: Q01DX009 (ip), vehicle: Klucel (hydroxypropylcellulose) (HPC)) is 90 % of control.
On to `CC(C)(C)OC(=O)NC(CC(=O)O)C(=O)O` (stereo not given), for which the T/C under setting [7] was 102 % of control; the T/C (dose: 100.0 mg/kg/injection, schedule: Q01DX009 (ip), vehicle: saline) was 90 % of control; the T/C (dose: 200.0 mg/kg/injection, schedule: Q01DX009 (ip), vehicle: saline) was 96 % of control.
For the compound `COc1ccc2c(c1OC(C)=O)-c1cc(OC(C)=O)cc3c1C(C2)N(C(=O)CN(CCCl)CCCl)CC3` (stereo not given), the T/C by setting is: (dose: 1.56 mg/kg/injection, schedule: Q04DX003 (ip), vehicle: DMSO) 120 % of control; (dose: 3.13 mg/kg/injection, schedule: Q04DX003 (ip), vehicle: DMSO) 120 % of control; (dose: 6.25 mg/kg/injection, schedule: Q04DX003 (ip), vehicle: DMSO) 159 % of control; (dose: 12.5 mg/kg/injection, schedule: Q04DX003 (ip), vehicle: DMSO) 150 % of control; (dose: 25.0 mg/kg/injection, schedule: Q04DX003 (ip), vehicle: DMSO) 150 % of control; (dose: 50.0 mg/kg/injection, schedule: Q04DX003 (ip), vehicle: DMSO) 170 % of control.
As to `O=C1CNC(=O)N1CN1CCOCC1`, the T/C was 94 % of control under setting [8], 94 % of control under setting [9], 115 % of control under setting [10] and 101 % of control under setting [11].
Take `CC(=O)/C(=C\c1ccc(Cl)c(Cl)c1)C(=O)CCN(C)C`: the T/C reads like this: under setting [5], 94 % of control; under setting [6], 93 % of control; under setting [7], 89 % of control.
On to `Cc1ccc(C(CCCl)OC(C)C)cc1` (stereo not given), for which the T/C was 97 % of control under setting [2]; 94 % of control under setting [3]; 94 % of control (dose: 400.0 mg/kg/injection, schedule: Q01DX009 (ip), vehicle: saline with Tween-80).
